According to paper PMC12621189, “Optimization of Selective and CNS Penetrant Alkyne-Based TREK Inhibitors: The Discovery and Characterization of ONO-9517601 (VU6022856) and ONO-7927846 (VU6024391)” (Journal of Medicinal Chemistry, 2025):

Assays:
[1] = Liver microsome intrinsic clearance, mouse; assay type: in vitro ADME; details: pH 7.4; mouse liver microsomes, predicted intrinsic clearance; read-out: LMS CLINT mouse
[2] = Liver microsome intrinsic clearance, human; assay type: in vitro ADME; details: pH 7.4; human liver microsomes, predicted intrinsic clearance; read-out: LMS CLINT human
Method: were incubated in 100 mM potassium phosphate pH 7.4 buffer with 3 mM MgCl2 at 37 °C with constant shaking. After a 5 min preincubation, the reaction was initiated by the addition of NADPH (1 mM). At selected time intervals (0, 3, 7, 15, 25, and 45 min), aliquots were taken and subsequently placed into a 96-well plate containing cold acetonitrile with internal standard (50 ng/mL carbamazepine). Plates were then centrifuged at 3000 rcf (4 °C) for 10 min, and the supernatant was transferred to a separate 96-well plate and diluted 1:1 with water for LC/MS/MS analysis. The in vitro half-life ( 1/2, min, Eq. 1), intrinsic clearance (CLint, mL/min/kg, Eq. 2), and subsequent predicted hepatic clearance (CLhep, mL/min/kg, Eq. 3) was determined employing the […]
where k represents the slope from linear regression analysis of the natural log percent remaining of a test compound as a function of incubation time […]
(2) CLint = in vitroT x mg microsomes x gram liver x kg body wt ascale-up factors: of 20 (human) or 45 (rat) […]
where Qh (hepatic blood flow, mL/min/kg) is 21 (human) or 70 (rat).
LC/MS/MS Bioanalysis of Samples from Plasma Protein Binding and Intrinsic Clearance […]
Samples were analyzed on a Thermo Electron TSQ Quantum Ultra triple quad mass spectrometer (San Jose, CA) via electrospray ionization (ESI) with two Themo Electron Accella pumps (San Jose, CA), and a Leap Technologies CTC PAL autosampler (Carrboro, NC). Analytes were […]

[3] = Rat in vivo PK (plasma clearance) in SAR tables; details: read-out: Rat CLp
ChromatoLogD = assay type: physicochemical
[4] = Rat brain to plasma ratio (Kp, Kp,uu); assay type: in vivo; details: male, Sprague Dawley, brain and plasma, intravenous, 0.2 mg/kg; rat brain:plasma
Method: Determination of brain to plasma ratio:
All animal study procedures were approved by the Institutional Animal Care and Use Committee and were conducted in accordance with the National Institutes of Health regulations of animal care covered in Principles of Laboratory Animal Care (National Institutes of Health). All rats were fasted overnight prior to testing.
For determination of the brain over plasma ratio (Kp), compounds were formulated in 8% ethanol, 32% PEG400 and 60% DMSO (v/v/v) and administered as a single 0.2 mg/kg IV dose (1 mL/kg) to male, Sprague Dawley rats (n = 1) via injection into a surgically-implanted jugular vein catheter. At 15 min post dosing, blood sample was collected into chilled, K2EDTA anticoagulant-fortified tube and immediately placed on wet ice. The blood sample was then centrifuged (1700 rcf, 5 minutes, 4 °C) to obtain plasma sample. At the same post-administration time point, whole brain sample was obtained by rapid dissection, rinsed with PBS, and immediately frozen in individual tissue collection box (dry ice). All brain and plasma samples were stored at -80 °C until […]
Sample Analysis: Concentrations in plasma and brain homogenates were quantified by liquid chromatography tandem mass spectrometry (LC-MS/MS). Whole brains were homogenized in 3 mL of 70:30 IPA:water in a mini bead beater for 3 min, and centrifuged at 3,500 g for 5 min. 5 uL of the supernatant was diluted in 15 uL of blank plasma for quantification of the analytes. Plasma samples were centrifuged at 3,500 g for 5 min. A standard curve was generated by diluting the analytes DMSO stocks with blank plasma to obtain a final concentration of 10,000 ng/ml followed by a serial dilution down to 0.5 ng/ml. Quality controls were generated by a serial dilution of the 5,000 ng/ml standard curve solution in blank plasma to obtain 3 concentrations of 500, 50, and 5 ng/ml. 20 uL of brain diluted in plasma, plasma, blank plasma, standard curve and QC samples were loaded in a V-bottom 96-well plate. 120 uL of acetonitrile containing 0.05 uM carbamazepine (internal standard) was added to each well and the plate was centrifuged at 3,500 g for 5 min. 60 uL of the supernatant of each well (protein free) was transferred to a new 96-well plate containing 60 uL of water. The plates were sealed for analysis by LC-MS/MS.
Plasma and brain tissue samples originating from in vivo studies were analyzed by electrospray ionization using an AB Sciex Q-TRAP 5500 (Foster City, CA) that was coupled to a Shimadzu LC-20AD pump (Columbia, MD) and a Leap Technologies CTC PAL auto-sampler (Carrboro, NC). Analytes were separated by gradient elution using a C18 column (3 x 50 mm, 3 mm; Fortis Technologies Ltd, Cheshire, UK) that was thermostated at 40 °C. HPLC mobile phase A was 0.1% formic acid in water (pH unadjusted); mobile phase B was 0.1% formic acid in acetonitrile (pH […]
min, with an isocratic hold for 0.5 min, before transitioning to 10% B over 0.05 min. The column was re-equilibrated (1 min) before the next sample injection. The total run time was 2.55 min, and the HPLC flow rate was 0.5 ml/min. The source temperature was set at 500 °C, and mass spectral analyses were performed using a Turbo-Ion spray source in positive ionization mode (5.0-kV spray voltage) and using multiple-reaction monitoring of transitions specific for the analytes. All data were analyzed using AB Sciex Analyst 1.5.1 software.
Brain plasma concentration ratio (Kp) was calculated by dividing brain concentration by plasma concentration for each animal. Unbound brain to unbound plasma concentration ratio (Kp,uu) is calculated using the following formula: Kp,uu = (Brain ng/g x brain fu)/(plasma ng/ml x plasma fu).
In-vitro determination of blood-brain barrier penetration potential
Blood-brain barrier penetration was determined using MDR1-MDCK cell monolayers by Absorption Systems, following their protocol. In short, compounds were incubated at […] final concentration on one side of the cell monolayer for 2 hours. […]

human TREK-1 (hTREK-1) = molecular target: T1, human TREK-1 (hTREK-1) (Homo sapiens, UniProt O95069); test: TREK-1 thallium flux assay (CHO-K1 cells stably expressing hTREK-1); assay type: cell-based; details: human TREK-1, thallium flux; read-out: h TREK-1 Tl+ IC50
T1 construct: expressed in transfected cells
T1 sequence (O95069 1-426): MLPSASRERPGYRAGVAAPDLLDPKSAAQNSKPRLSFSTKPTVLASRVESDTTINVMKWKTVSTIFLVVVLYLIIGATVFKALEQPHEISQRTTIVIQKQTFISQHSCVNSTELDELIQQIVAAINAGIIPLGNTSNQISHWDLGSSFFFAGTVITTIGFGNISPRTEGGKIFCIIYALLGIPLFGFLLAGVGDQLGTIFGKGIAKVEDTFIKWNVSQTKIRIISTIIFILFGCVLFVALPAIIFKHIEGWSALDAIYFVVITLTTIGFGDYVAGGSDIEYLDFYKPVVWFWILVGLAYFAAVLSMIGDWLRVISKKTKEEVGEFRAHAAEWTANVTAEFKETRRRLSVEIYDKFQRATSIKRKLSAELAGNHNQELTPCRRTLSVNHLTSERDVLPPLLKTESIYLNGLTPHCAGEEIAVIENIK
Method: Procedures for Biological Experiments
TREK-1 Thallium flux assay
CHO-K1 cells stably expressing hTREK-1 were cultured in T225 flask. The cells were loaded with FluxOR dye and plated in 384 well plate at the experiment day. Test compounds or control compound (tert-butyl (3-((4-(benzyloxy)-2-methylphenyl)carbamoyl)-4-chlorophenyl)carbamate) or 0.3% DMSO (vehicle control) were added directly to the cell plates and incubated for 10 min, and then treated with thallium stimulus buffer to initiate thallium flux.
To measure the efficacy and potency of test compounds, the change in fluorescence intensity (ΔRatio) and % inhibition were calculated using the following equations:
ΔRatio = (fluorescence intensity at 25 seconds after thallium addition)/(average of fluorescent intensity before thallium addition)
0.3% DMSO - ΔRatio of 10 μM control compound)}x100
% inhibition vs compound concentration were plotted in XLfit and calculated IC50.
CHO-K1 cells stably expressing human TREK-1 (hTREK-1) were cultured in T225 flask.
The cells were loaded with FluxOR dye and plated in 384 well plate at the experiment day. Test compounds or control compound (tert-butyl (3-((4-(benzyloxy)-2-methylphenyl)carbamoyl)-4-chlorophenyl)carbamate) or 0.3% DMSO (vehicle control) which were prepared on separate plates were added to the cell plates and incubated for 10 min, and then the cells with test compounds or […]
chlorophenyl)carbamate) or 0.3% DMSO (vehicle control) were treated with thallium stimulus buffer to initiate thallium flux. To measure the efficacy and potency of test compounds, the change in fluorescence intensity (ΔRatio) and % inhibition were calculated using the following equations: […]

mouse TREK-1 (mTREK-1) = molecular target: T2, mouse TREK-1 (mTREK-1) (Mus musculus, UniProt P97438); test: mTREK-1 manual patch clamp assay; assay type: cell-based; details: mouse TREK-1, manual patch clamp; read-out: TREK-1 IC50 (mouse, MPC)
T2 construct: expressed in transfected cells; host or cells: CHO-K1 (transient)
T2 sequence (P97438 1-426): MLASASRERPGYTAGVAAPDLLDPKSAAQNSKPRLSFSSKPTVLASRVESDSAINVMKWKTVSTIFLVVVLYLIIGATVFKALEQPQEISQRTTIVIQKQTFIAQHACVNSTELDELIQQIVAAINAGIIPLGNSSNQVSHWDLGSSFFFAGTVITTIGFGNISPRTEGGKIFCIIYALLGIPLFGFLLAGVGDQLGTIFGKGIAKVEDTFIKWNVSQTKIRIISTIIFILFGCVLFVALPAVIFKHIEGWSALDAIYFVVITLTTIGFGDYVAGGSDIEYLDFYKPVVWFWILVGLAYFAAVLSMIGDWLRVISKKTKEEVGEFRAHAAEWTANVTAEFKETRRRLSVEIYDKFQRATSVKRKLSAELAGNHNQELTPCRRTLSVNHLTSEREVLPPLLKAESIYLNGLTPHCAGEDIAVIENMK
Method: (§1) hTREK-1 and mTREK-1 patch clamp assay
(§2) CHO-K1 cells stably expressing hTREK-1 or CHO-K1 cells transiently expressing mouse TREK-1 (mTREK-1) were plated on glass coverslips, and voltage clamped in the whole-cell configuration of the patch clamp technique. Cells were voltage clamped at a holding potential of - 80 mV and the stepped to 0 mV for 500 msec. The voltage was subsequently ramped from -120mV to +80 mV over a 500 msec duration. This step-ramp protocol was repeated every 10 sec. The bathing solution contained the following: 135 mM NaCl, 5 mM KCl, 2 mM CaCl2, 1 mM MgCl2, 5 mM D-Glucose, 10 mM HEPES, 10 mM sucrose (adjusted to pH 7.4 with NaOH, 300 mosmol/kg H2O). The pipette solution contained the following: 135 mM KCl, 2 mM MgCl2, 1 mM EGTA, 10 mM HEPES, 2 mM Na2ATP (adjusted to pH 7.35 with KOH, 285 mosmol/kg H2O). Test […]
(§3) compounds were dissolved into the bathing solution. The effects of test compound on the currents were calculated at 0 mV using the following equations:
(§4) % inhibition = (1-post current/pre current) x 100
(§5) % inhibition vs compound concentrations were plotted in GraphPad Prism and calculated IC50. […]

hTREK-1 = molecular target: T3, hTREK-1 (Homo sapiens, UniProt O95069); test: hTREK-1 manual patch clamp assay; assay type: cell-based; details: human TREK-1, manual patch clamp; read-out: TREK-1 IC50 (human, MPC)
T3 construct: expressed in transfected cells
T3 sequence (O95069 1-426): T1 sequence (O95069 1-426)
Method: as §1, §2, §3, §4, §5

| SMILES | CLint scaled at 1 µM [1] [mL/min/kg] | CLint scaled at 1 µM [2] [mL/min/kg] | clearance [3] [mL/min/kg] | chromatographic logD (ChromatoLogD) | Kp at 15 min [4] | IC50 (human TREK-1 (hTREK-1)) [µM] | IC50 (mouse TREK-1 (mTREK-1)) [µM] | IC50 (hTREK-1) [µM] |
| --- | --- | --- | --- | --- | --- | --- | --- | --- |
| Cc1cc(C#Cc2ccccc2)cnc1NC(=O)c1cc(C(=O)N2CC(F)(F)C2)ccc1Cl [Compound 13a, 2-Chloro-5-(3,3-difluoroazetidine-1-carbonyl)-N-[3-methyl-5-(2-phenylethynyl)-2-pyridyl]benzamide] | 75 | 18 | 328 | 4.03 | 0.84 | 0.32 |  |  |
| Cc1cc(C#Cc2ccccc2)cnc1NC(=O)c1cc(OCC2COCCO2)ccc1Cl (stereo not shown) [Compound 13c, 2-Chloro-5-(1,4-dioxan-2-ylmethoxy)-N-[3-methyl-5-(2-phenylethynyl)-2-pyridyl]benzamide] | 107 | 36 | 16.2 | 4.14 | 0.89 | 0.13 |  |  |
| Cc1cc(C#Cc2ccccc2)cnc1NC(=O)c1cc(OC[C@H]2COCCO2)ccc1Cl [Compound 13d, (R)-5-((1,4-Dioxan-2-yl)methoxy)-2-chloro-N-(3-methyl-5-(phenylethynyl)pyridin-2-yl)benzamide] |  |  |  | 4.14 |  | 0.11 | 1.2 | 0.011 |
